According to paper PMC10390520, “Antibody binding of amyloid beta peptide epimers/isomers and ramifications for immunotherapies and drug development” (Scientific Reports, 2023):

Test system: antibodies 4G8, 6E10, mOC98 and mOC23
Assay: Immunoprecipitation of Aβ 1–42 peptides with four antibodies, LC-MS/MS detection
Format: binding
Conditions: Fig. 3B data, corrected with individual MS/MS calibration curves; 11 pmol Aβ peptide, 13.2 pmol antibody in 300 µL IP lysis/wash buffer; Protein A/G plus agarose; LC-MS/MS 903–886 m/z; triplicate
Procedure: Antibody binding efficacy was assessed through an immunoprecipitation procedure, followed by reconstitution in borate buffer and analysis via liquid chromatography tandem mass spectrometry (see Methods). […] Note that these antibodies were developed using the WT (all L) Aβ peptide. Further, the MS/MS detection also was optimized using the WT (all L) Aβ peptide. […] The reduced signal intentensities could be attributed to the altered binding between the antibody and the “aberrant” forms of Aβ, differences in the MS/MS of the “aberrant” Aβ or combinations of these two factors. […]
Purified anti-β-Amyloids 17–24 Antibody (4G8) and 1–16 Antibody (6E10) were purchased from BioLegend (San Diego, CA, USA) while mOC-type antibodies recombinant anti-beta amyloid 1–42 mOC98 and mOC23 were purchased from Abcam (Cambridge, UK). Antibody-antigen binding was measured using Pierce Classic IP Kit by Thermo Fisher Scientific (Waltham, MA, USA). […] Elution buffer was evaporated and samples were reconstituted in 20 µL of 0.1 M borate buffered to pH 9.1 and analyzed by LC–MS/MS. […]
HPLC–MS grade acetonitrile was purchased from Sigma-Aldrich and ultrapure water was obtained from a Milli-Q-water system (Millipore, Bedford, MA, USA). […] WT (all L) Aβ 1–42 and aberrant Aβ 1–42 immunoprecipitated standards were quantitated using the MS/MS transition 903–886 m/z. […]

WT (all L) Aβ: unmodified wild-type all-L amyloid beta 1–42 peptide, purchased from Genscript
antibody binding affinity (immunoprecipitation extraction) compared to WT (all L) Aβ: same efficacy
